This is an account of results in article PMC3197159, “The Atypical Stimulant and Nootropic Modafinil Interacts with the Dopamine Transporter in a Different Manner than Classical Cocaine-Like Inhibitors” (PLoS ONE, 2011).

In experiment [1] the test system is NET. On the set-up: method as in Madras et al. (2006) 53. The settings on record: ref Madras et al. (2006) 53; read-out: IC50, inhibition of noradrenaline uptake by the NET; cited from earlier work.
Experiment [2] concerns the target WT human DAT (Homo sapiens, UniProt Q01959). In words: [3H]CFT binding inhibition, intact HEK293 cells expressing WT hDAT. As to conditions: inhibition by cold β-CFT.

pIC50: −log10 of the molar value.

WT human DAT, sequence (Q01959 whole entry): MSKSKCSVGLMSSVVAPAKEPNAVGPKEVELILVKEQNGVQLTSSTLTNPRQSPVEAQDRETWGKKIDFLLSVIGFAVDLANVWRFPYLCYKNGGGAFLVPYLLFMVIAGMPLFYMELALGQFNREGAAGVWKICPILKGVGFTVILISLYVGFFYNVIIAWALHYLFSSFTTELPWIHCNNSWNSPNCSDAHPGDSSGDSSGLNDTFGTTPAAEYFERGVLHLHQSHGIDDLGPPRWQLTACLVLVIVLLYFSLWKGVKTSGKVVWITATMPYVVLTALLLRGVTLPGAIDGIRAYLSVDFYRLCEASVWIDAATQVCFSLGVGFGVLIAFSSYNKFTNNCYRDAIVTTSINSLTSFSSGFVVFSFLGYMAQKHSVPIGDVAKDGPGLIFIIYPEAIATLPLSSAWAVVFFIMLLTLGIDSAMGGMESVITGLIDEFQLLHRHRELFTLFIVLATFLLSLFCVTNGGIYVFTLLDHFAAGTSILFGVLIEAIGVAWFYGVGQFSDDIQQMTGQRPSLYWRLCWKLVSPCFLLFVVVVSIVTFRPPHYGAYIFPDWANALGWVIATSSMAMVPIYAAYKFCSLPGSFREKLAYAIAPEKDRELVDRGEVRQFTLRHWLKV

For `NC(=O)C[S+]([O-])C(c1ccccc1)c1ccccc1` (racemic) [(±)-modafinil, 2-(benzhydrylsulfinyl)acetamide], the pIC50 (as a rule, the IC50 on a negative log10 scale, so that one unit is a factor of ten) in experiment [1] was […]. For the compound `COC(=O)C1C(c2ccc(F)cc2)CC2CCC1N2C` (stereo not drawn) [β-CFT], the “Bmax of [3H]CFT binding, sodium-free + Zn2+” value in experiment [2] (sodium-free conditions with 10 µM Zn2+) was 502±78 fmole/well. Moreover, in experiment [2] (sodium-free conditions, no Zn2+), the “Bmax of [3H]CFT binding, sodium-free” value is 125±15.8 fmole/well.
